In patent US20230149303A1, “BUCCAL AND ENTERIC DELIVERY OF FATTY ACIDS IN FOODS AND BEVERAGES” (priority 2020, published 2023):
Like-named read-outs stand apart in the source and are kept apart here.

Columns and labels:
[1] = mucosal quick release, retained in the mouth for several seconds; cited from earlier work
[2] = bioavailability after oral, mucosal/buccal or enteric delivery; assay type: in vivo
Method: B6 helps the body produce neurotransmitters (e.g., serotonin); it can block glutamate and help the brain learn to calm. […] B6 can also be delivered enterically with nearly 100% bioavailability, as well.
In a specific implementation, microencapsulated CBD is provided as an analgesic in an edible toothpaste. In this specific implementation, 20 mg of the CBD is microencapsulated for buccal delivery to act as a localized analgesic in the mouth. CBD is degraded in the stomach but, as was discussed above, CBD is readily absorbed in mucosa. Although it is recognized not all patients will follow best practices, bioavailability estimates assume the amount of time spent brushing is 2 minutes, which is the time span over which the edible toothpaste remains in the mouth and which is long enough to make almost all of CBD formulated for buccal delivery bioavailable. Accordingly, when the product is used as directed, the CBD remains in the mouth long enough to achieve over 90% bioavailability. Thus, the amount of buccally delivered CBD can be added to that of enterically delivered CBD to determine a total systemic dose.
As with the edible toothpaste described above, a first portion of the CBD is formulated for buccal delivery and a second portion of the CBD is formulated for enteric delivery. […] CBD is degraded in the stomach but, as was discussed above, CBD is readily absorbed in mucosa. […]

[3] = biological target: T1, TrpV1 receptor (Homo sapiens, UniProt Q8NER1); conditions: absorbed through mucosa; cited from earlier work
T1 construct: It typically takes over 20 minutes for CBD absorbed through mucosa to provide significant pain relief; from tissue; host or cells: oral mucosa / body of the user (in vivo)
T1 sequence (Q8NER1 whole entry): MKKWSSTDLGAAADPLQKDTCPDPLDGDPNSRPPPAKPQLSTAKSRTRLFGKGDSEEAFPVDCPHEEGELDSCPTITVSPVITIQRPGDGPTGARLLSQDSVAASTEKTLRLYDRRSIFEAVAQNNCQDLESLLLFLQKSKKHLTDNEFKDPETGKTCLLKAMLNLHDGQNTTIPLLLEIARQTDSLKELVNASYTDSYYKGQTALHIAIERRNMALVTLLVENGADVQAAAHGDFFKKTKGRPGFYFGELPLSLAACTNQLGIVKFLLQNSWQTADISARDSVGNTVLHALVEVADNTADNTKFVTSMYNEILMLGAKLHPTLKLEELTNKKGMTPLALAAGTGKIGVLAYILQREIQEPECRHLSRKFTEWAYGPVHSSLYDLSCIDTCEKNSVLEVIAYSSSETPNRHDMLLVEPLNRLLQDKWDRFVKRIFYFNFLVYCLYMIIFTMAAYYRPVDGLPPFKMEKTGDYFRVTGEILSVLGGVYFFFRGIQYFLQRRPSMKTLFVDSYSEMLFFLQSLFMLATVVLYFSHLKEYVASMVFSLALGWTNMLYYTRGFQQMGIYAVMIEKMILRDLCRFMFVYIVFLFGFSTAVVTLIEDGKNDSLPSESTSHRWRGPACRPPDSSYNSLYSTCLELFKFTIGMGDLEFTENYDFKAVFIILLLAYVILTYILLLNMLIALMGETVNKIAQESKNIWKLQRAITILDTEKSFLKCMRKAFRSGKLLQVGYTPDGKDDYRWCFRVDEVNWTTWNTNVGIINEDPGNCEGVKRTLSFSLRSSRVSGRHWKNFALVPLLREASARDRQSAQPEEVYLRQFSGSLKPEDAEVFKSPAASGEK

[4] = cited from earlier work
[5] = test system: CB2 receptors; assay: estimated affinity relative to CBD; assay type: binding
From the text: Because CB2 receptors have a low affinity for CBD, large doses of CBD have increasingly advantageous pharmacological effects. However, CBD is relatively expensive, so the ratio of CBD to other components is more prone to cost/efficacy trade-offs than other components of the formulation. Alternatives can skimp on CBD and even drop the ratio of CBD-to-caffeine below the recommended 1:1 ratio, which should have acceptable effects so long as the caffeine is not in such a high dosage that it causes jitters.
A greater proportion of CBD may be desirable for the purpose of binding to theorized CBD3 receptors or other presently poorly defined receptors with less affinity for CBD. A high dose of CBD, over 100 mg up to less than 250 mg can have a sedative effect that may be effective for certain individuals, though it is unlikely desirable to reach 250 mg, which is approaching the liver enzyme inhibition dose. Although, currently marketed energy drinks have as much as 250 mg caffeine, it would be difficult to fit that much caffeine into a nurdle while maintaining a 1:1 ratio of CBD-to-caffeine (not to mention the 1:2 ratio of caffeine-to-theanine), so the upper ranges of CBD become largely irrelevant in this particular product due to volumetric constraints. […]

[6] = in vivo; cited from earlier work

## CCCCCCCCCCCCCCCC(=O)OCc1cnc(C)c(OC(=O)CCCCCCCCCCCCCCC)c1COC(=O)CCCCCCCCCCCCCCC [pyridoxine tripalmitate]
[1]
  bioavailable: over 90%

## C=C(C)[C@@H]1CCC(C)=C[C@H]1c1c(O)cc(CCCCC)cc1O [CBD]
[2]; buccal delivery from edible toothpaste, estimate assumes 2 minutes brushing
  bioavailability: over 90%
[2]; buccal delivery from mouthwash, estimate assumes 30 seconds to one minute in the mouth
  bioavailability: over 90%
[3]
  time to provide significant pain relief: over 20 minutes
[4]; frequent user
  half-life in the bloodstream: 5 to 13 days
[4]; infrequent user
  half-life in the bloodstream: about 1.3 days

## 2-Lineoleoyl-glycerol
[5]
  affinity relative to CBD: ~1,000 times

## 2-Palmitolyl-glycerol
[5]
  affinity relative to CBD: ~1,000 times

## CC1CCC(C(C)C)C(O)C1 (stereo not drawn) [menthol]
[6]
  lethal dose: ≥ 50 mg/kg
